This assay deals with mice. The assay is described as follows: Neuropharmacological Assay (SmartCube): automated behavioral signature of compound-treated mice compared with a database of reference drug classes. Format: in vivo. Conditions: for minimal effective dose: Mus musculus, ip; for AD / AG / AN / AP / AX / CE / HL / MS / PS / SH / UK: 3.0 mg/kg i.p., 15 min before test. From the text: Neurosci. 2011 Sep. 9; 5: 103 (doi: 10.3389/fnins.2011.00103) (“Roberds”). As reported in Roberds, because psychiatric diseases generally result from disorders of cell-cell communication or circuitry, intact systems are useful in detecting improvement in disease-relevant endpoints. These endpoints are typically behavioral in nature, often requiring human observation and interpretation. To facilitate testing of multiple compounds for behavioral effects relevant to psychiatric disease, PsychoGenics, Inc. (Tarrytown, NY, “PGI”) developed SmartCube™ an automated system in which behaviors of compound-treated mice are captured by digital video and analyzed with computer algorithms. (D. Brunner et al. Drug Discov. Today 2002, 7:S107-S112). PGI Analytical Systems uses data from SmartCube™ to compare the behavioral signature of a test compound to a database of behavioral signatures obtained using a large set of diverse reference compounds. (The composition of the database as well as validation of the method is further described in Roberds). In this way, the neuropharmacological effects of a test compound can be predicted by similarity to major classes of compounds, such as antipsychotics, anxiolytics and antidepressants.
The SmartCube™ system produces an activity signature indicating the probability that the activity of the test compound at the administered dose matches a given class of neuropharmacological agents. (See, e.g., Roberds, FIGS. 2 and 3). The test compound is simultaneously compared against multiple classes of agents; thus, a separate probability is generated for each behavioral effect measured (e.g., anxiolytic activity, analgesic activity, etc.). In table 2 below, these probabilities are reported for each behavioral effect measured as described in Table 1 below.
Provided compounds were dissolved in a mixture of Pharmasolve™ (N-methyl-2-pyrrolidone), polyethylene glycol and propylene glycol, and were injected i.p. 15 min. before the behavioral test. For each compound, injections were administered at 3 different doses. For each behavioral effect measured, results for the 3.0 mg/kg dose are presented. The potency of many of the compounds in the table was also determined in the SmartCube™ system. Test compounds were routinely examined at dose levels of 0.3, 1, 3 and 10 mg per kg (mpk), although the dose range was increased or decreased, if necessary, to obtain a full dose response curve. A compound's minimal effective dose (MED) is a measure of the compound's potency. The MED was defined as the dose (in mpk) having 45% or more total activity in SmartCube. If only one dose was tested, that dose is shown in the MED column of Table 2 even though the dose is not known to be the MED.

Setting [1] is: minimal effective dose: dose having 45% or more total activity in SmartCube, i.p., if only one dose tested, that dose is shown, read-out: MED.
Where [2] appears, read: dose having 45% or more total activity in SmartCube, i.p., if only one dose was tested, that dose is shown, hydrochloride.
Setting [3] is: probability that activity matches this class of agents.
[4] abbreviates: probability that activity matches this class of agents, hydrochloride, 3 mg/kg.
Where [5] appears, read: SmartCube class probability, hydrochloride, 3 mg/kg.

The record followed here is patent US20260274814A1, “THIENYL COMPOUNDS FOR THE TREATMENT OF A CENTRAL NERVOUS SYSTEM DISEASE OR DISORDER” (Coreterra Therapeutics, Inc., priority 2023, published 2026).

Structures are written as SMILES. Counter-ions that a name gives are not always drawn. Like-named read-outs stand apart in the source and are kept apart here.

Turning to `CNC1COc2csc(C(F)(F)F)c2C1` (centres unmarked) [Compound 153, N-methyl-5-(trifluoromethyl)-3,4-dihydro-2H-thieno[3,4-b]pyran-3-amine hydrochloride], the minimal effective dose under setting [1] was determined as 3 mg/kg. In addition, where the note is “SmartCube class probability”, the AD entry is recorded as “++++ (≥74%)”, the AG entry is recorded as “ND (^ <4%)”, the AN entry is “ND (^ <4%)” and the AP entry is “ND (^ <4%)”. Further, under “SmartCube class probability”, the AX result is recorded as “ND (^ <4%)”, the CE result is listed as “ND (^ <4%)”, the HL result is “ND (^ <4%)” and the MS result is recorded as “ND (^ <4%)”. Moreover, for the setting “SmartCube class probability”, the PS result is listed as “ND (^ <4%)”, the SH entry is reported as “ND (^ <4%)” and the UK entry is on record as “ND (^ <4%)”.
As for `CNC1CCc2sccc2C1.Cl` (single isomer, unassigned) [Compound 11, N-methyl-4,5,6,7-tetrahydrobenzothiophen-5-amine hydrochloride], the “MED (minimal effective dose)” value under setting [2] was found to be 0.3 mpk. Moreover, under setting [3], the AG entry was “ND (^ <4%)”, the AN result is reported as “ND (^ <4%)”, the CE entry is listed as “ND (^ <4%)” and the HL result is recorded as “ND (^ <4%)”. In addition, under setting [3], the MS result is “ND (^ <4%)”, the PS result was “ND (^ <4%)”, the SH entry is “ND (^ <4%)” and the UK entry is “ND (^ <4%)”. Besides, under setting [4], the AD entry was “ND (^ <4%)”, the AP entry is “++++ (≥74%)” and the AX entry is listed as “ND (^ <4%)”.
With `CNC1CCc2scc(C3CC3)c2C1` (centres unmarked) [Compound 201, 3-cyclopropyl-N-methyl-4,5,6,7-tetrahydrobenzothiophen-5-amine hydrochloride], under setting [1], the minimal effective dose came out at 3 mg/kg. Moreover, for the setting “SmartCube class probability”, the AD result is listed as “ND (^ <4%)”, the AG result was “ND (^ <4%)”, the AN entry is “ND (^ <4%)” and the AP result is given as “ND (^ <4%)”. In addition, where the note is “SmartCube class probability”, the AX result was “+ (≥4%)”, the CE entry is “ND (^ <4%)”, the HL entry is “ND (^ <4%)” and the MS result is listed as “ND (^ <4%)”. Where the note is “SmartCube class probability”, the PS result is “ND (^ <4%)”, the SH result is recorded as “ND (^ <4%)” and the UK entry is on record as “++ (≥24%)”.
On to `Cc1sc2c(c1F)CC(N)CC2` (centres unmarked) [Compound 214, 3-fluoro-2-methyl-4,5,6,7-tetrahydrobenzothiophen-5-amine hydrochloride], for which the minimal effective dose under setting [1] is above 3 mg/kg. Besides, under “SmartCube class probability”, the AD result is reported as “ND (^ <4%)”, the AG result is listed as “ND (^ <4%)”, the AN entry is recorded as “ND (^ <4%)” and the AP result was “ND (^ <4%)”. Under “SmartCube class probability”, the AX result is reported as “ND (^ <4%)”, the CE result is given as “ND (^ <4%)”, the HL entry is given as “ND (^ <4%)” and the MS entry is “ND (^ <4%)”. In addition, where the note is “SmartCube class probability”, the PS result is “ND (^ <4%)”, the SH result is reported as “ND (^ <4%)” and the UK result is “+ (≥4%)”.
With `CNC1CCc2scc(-c3ccccc3)c2C1` (single isomer, unassigned) [Compound 232, N-methyl-3-phenyl-4,5,6,7-tetrahydrobenzothiophen-5-amine hydrochloride], under setting [1], the minimal effective dose was above 3 mg/kg. Also, where the note is “SmartCube class probability”, the AD entry was “ND (^ <4%)”, the AG entry is “ND (^ <4%)”, the AN entry is reported as “ND (^ <4%)” and the AP entry is “ND (^ <4%)”. Besides, for the setting “SmartCube class probability”, the AX entry is listed as “ND (^ <4%)”, the CE entry was “ND (^ <4%)”, the HL result is given as “ND (^ <4%)” and the MS result is “ND (^ <4%)”. Also, where the note is “SmartCube class probability”, the PS result is given as “ND (^ <4%)” and the SH entry is “ND (^ <4%)”. Moreover, under setting [5], the UK entry is “+ (≥4%)”.
`Cc1scc2c1CCC(C)(N)C2` (centres unmarked) [Compound 200, 1,5-dimethyl-6,7-dihydro-4H-2-benzothiophen-5-amine hydrochloride]: the minimal effective dose under setting [1] was determined as 3 mg/kg. Where the note is “SmartCube class probability”, the AD entry is given as “ND (^ <4%)”, the AG result was “ND (^ <4%)”, the AN result is “++ (≥24%)” and the AP result was “ND (^ <4%)”. Moreover, for the setting “SmartCube class probability”, the AX entry was “ND (^ <4%)”, the CE entry is on record as “ND (^ <4%)”, the HL result is listed as “+ (≥4%)” and the MS entry is “ND (^ <4%)”. Further, where the note is “SmartCube class probability”, the PS entry is given as “++ (≥24%)”, the SH result is listed as “ND (^ <4%)” and the UK entry is “ND (^ <4%)”.
For `NC1COc2c(C3CC3)csc2C1` (centres unmarked) [Compound 229, 3-cyclopropyl-6,7-dihydro-5H-thieno[3,2-b]pyran-6-amine hydrochloride], under setting [1], the minimal effective dose is 3 mg/kg. Also, under “SmartCube class probability”, the AG entry is on record as “ND (^ <4%)”, the AN entry is given as “ND (^ <4%)”, the AP entry is given as “ND (^ <4%)” and the AX result is listed as “++++ (≥74%)”. Where the note is “SmartCube class probability”, the CE entry is recorded as “ND (^ <4%)”, the HL entry was “+ (≥4%)”, the MS result was “ND (^ <4%)” and the PS result was “ND (^ <4%)”. For the setting “SmartCube class probability”, the SH result is “ND (^ <4%)” and the UK entry was “ND (^ <4%)”.
Take `CNC1CCc2c(F)csc2C1` (single isomer, unassigned) [Compound 84, 3-fluoro-N-methyl-4,5,6,7-tetrahydrobenzothiophen-6-amine hydrochloride]: the “MED (minimal effective dose)” value under setting [2] was 0.1 mpk. In addition, under setting [3], the AG result is on record as “ND (^ <4%)”, the AN entry is listed as “ND (^ <4%)”, the HL result is given as “ND (^ <4%)” and the MS entry is “ND (^ <4%)”. Under setting [3], the PS entry is “ND (^ <4%)” and the UK entry is given as “ND (^ <4%)”. Further, under setting [4], the AD result is “+ (≥4%)”, the AP entry is reported as “ND (^ <4%)”, the AX result is recorded as “ND (^ <4%)” and the CE result is “ND (^ <4%)”. Also, the SH entry under setting [4] was “+++ (≥49%)”.
As for `CNC1COc2csc(Cl)c2C1` (centres unmarked) [Compound 87, 5-chloro-N-methyl-3,4-dihydro-2H-thieno[3,4-b]pyran-3-amine hydrochloride], where the note is “dose having 45% or more total activity in SmartCube, i.p., if only one dose was tested, that dose is shown, read-out: MED (minimal effective dose)”, the minimal effective dose is 3 mg/kg. Further, under setting [3], the AD result was “ND (^ <4%)”, the AG result is “ND (^ <4%)”, the AN result is on record as “ND (^ <4%)” and the AP result is “+++ (≥49%)”. Moreover, under setting [3], the AX entry is listed as “ND (^ <4%)”, the CE result is given as “ND (^ <4%)”, the HL entry is reported as “ND (^ <4%)” and the MS entry is “ND (^ <4%)”. In addition, under setting [3], the PS result is listed as “ND (^ <4%)”, the SH entry is on record as “ND (^ <4%)” and the UK result was “ND (^ <4%)”.
As for `CNC1COc2ccsc2C1` (single isomer, unassigned) [Compound 47, N-methyl-6,7-dihydro-5H-thieno[3,2-b]pyran-6-amine hydrochloride], the “MED (minimal effective dose)” value under setting [2] is on record as 0.3 mpk. In addition, under setting [3], the AG entry is reported as “ND (^ <4%)”, the AN result is “ND (^ <4%)”, the AP result was “ND (^ <4%)” and the CE result was “ND (^ <4%)”. Moreover, under setting [3], the HL result is recorded as “ND (^ <4%)”, the MS entry is on record as “ND (^ <4%)”, the PS result was “ND (^ <4%)” and the SH entry was “ND (^ <4%)”. Moreover, under setting [4], the AD result is listed as “++++ (≥74%)”, the AX entry was “ND (^ <4%)” and the UK result is given as “ND (^ <4%)”.
In the case of `CNC1CCc2sc(-c3ccccc3)cc2C1.Cl` (single isomer, unassigned) [Compound 257, N-methyl-2-phenyl-4,5,6,7-tetrahydrobenzothiophen-5-amine hydrochloride], under “SmartCube class probability”, the AD entry is reported as “ND (^ <4%)”, the AG entry is listed as “ND (^ <4%)”, the AN result is recorded as “ND (^ <4%)” and the AP result was “ND (^ <4%)”. Also, under “SmartCube class probability”, the AX entry was “ND (^ <4%)”, the CE result is recorded as “ND (^ <4%)”, the HL entry is recorded as “ND (^ <4%)” and the MS result was “ND (^ <4%)”. In addition, where the note is “SmartCube class probability”, the PS result is given as “ND (^ <4%)” and the SH result is listed as “ND (^ <4%)”. Also, the UK entry under setting [5] was “++ (≥24%)”. Also, the MED (minimal effective dose: dose having 45% or more total activity in SmartCube, i.p., if only one dose tested, that dose is shown) is on record as above 3 mpk.
